In article PMC6539525, “Design, Synthesis, and Mechanism of Dihydroartemisinin–Coumarin Hybrids as Potential Anti-Neuroinflammatory Agents” (Molecules, 2019):
Where two headings read alike, the source gives them in different places.

Columns and labels:
[1] = system: HT-29 cells; assay: MTT cytotoxicity in HT-29 cells; format: cell-based, Human; details: Homo sapiens, MTT
Experimental: (§1) As the anti-neuroinflammatory agents for cancer patients, all newly synthesized compounds were evaluated in vitro for antitumor activity against human breast cancer cell line MDA-MB-231, colorectal cancer cells HT-29 and HCT-116, and lung cancer cell line A549 by using the standard MTT method, respectively. Doxorubicin (DOX) and DHA were used as the reference standard. Additionally, owing to the rapid proliferation, the tumor cells actually was always in hypoxia condition. Therefore, the in vitro cytotoxicity was evaluated in two different conditions (hypoxia and normoxia).
After recovery, the cells were cultured in 96-well plates for 24 h at 37 °C in a humidified atmosphere with 95% air and 5% CO2. After treated with different tested compounds, the hypoxia groups were placed in a sealed hypoxia incubator chamber (Stemcell Technologies, Inc., Vancouver, BC, Canada) filled with 5% CO2 and 95% N2 for 24 h, and then transferred to the incubator chamber filled with air for 72 h. […]
(§2) Cancer cells HT-29 (Human Colorectal Adenocarcinoma cell line), MDA-MB-231 (Human Breast Cancer cell line), HCT-116 (Human Colorectal Carcinoma cell line), and A549 (Human Lung Adenocarcinomic cell line) were from ATCC.
When the adherent cells reached 80% confluence, the culture medium was discarded. The cells were digested by trypsin and collected after centrifugation. The fresh culture medium was gently blown into it to form single-cell suspension. Cell suspension will be diluted to 1.5–3 × 10^4 cells/mL. Each hole of 96-well plates was added 100 μL cell suspension and incubated for 24 h (5% CO2; 37 °C). Then the holes were added different concentrations of tested compounds. The early screening concentration is set to 100 μM, 50 μM, 25 μM, 12.5 μM, and 6.25 μM. Three replicates were made for each concentration of the tested compounds. […] The medium was discarded and each well was added 100 μL DMSO to dissolve the formazan blue. Absorbance was measured at 570 nm with a microplate reader (Synergy-HT, BioTek Instruments, Winooski, VT, USA). […]

[2] = system: MDA-MB-231 cells; assay: MTT cytotoxicity in MDA-MB-231 cells; format: cell-based; details: Homo sapiens
Experimental: as §1
(§3) After recovery, the cells were cultured in 96-well plates for 24 h at 37 °C in a humidified atmosphere with 95% air and 5% CO2. After treated with different tested compounds, the hypoxia groups were placed in a sealed hypoxia incubator chamber (Stemcell Technologies, Inc., Vancouver, BC, Canada) filled with 5% CO2 and 95% N2 for 24 h, and then transferred to the incubator chamber filled with air for 72 h. On the contrary, the normoxia groups were cultured under air condition for 96h.
as §2
(§4) When the adherent cells reached 80% confluence, the culture medium was discarded. The cells were digested by trypsin and collected after centrifugation. The fresh culture medium was gently blown into it to form single-cell suspension. Cell suspension will be diluted to 1.5–3 × 10^4 cells/mL. Each hole of 96-well plates was added 100 μL cell suspension and incubated for 24 h (5% CO2; 37 °C). Then the holes were added different concentrations of tested compounds. The early screening concentration is set to 100 μM, 50 μM, 25 μM, 12.5 μM, and 6.25 μM. Three replicates were made for each concentration of the tested compounds. After the cells were grown for 96h, 20 μL MTT (5 mg/mL) was added to each well and incubated for 4 h. The medium was discarded and each well was added 100 μL DMSO to dissolve the formazan blue. Absorbance was measured at 570 nm with a microplate reader (Synergy-HT, BioTek Instruments, Winooski, VT, USA).
(§5) Hypoxia condition: The cells were treated with different concentration of tested compounds, placed in hypoxia chamber (Catalog Number 27310, Stemcell Technologies, Inc., Vancouver, BC, Canada), and incubated for 24 h ([…]; 37 °C). Then the cells were placed in normoxia condition (5% CO2; 37 °C) and incubated for 72 h.

[3] = system: HCT-116 cells; assay: MTT cytotoxicity in HCT-116 cells; format: cell-based; details: Homo sapiens
Experimental: as §1, §3, §2, §4, §5

[4] = system: A549 cells; assay: MTT cytotoxicity in A549 cells; format: cell-based; details: Homo sapiens
Experimental: as §1, §3, §2, §4, §5

[5] = system: NO release of LPS-induced microglial N9 cells; assay: Inhibition of NO release in LPS-induced N9 cells (Griess); format: cell-based, murine; details: Mus musculus, 1 μg/mL LPS for 48 h, NO level in medium
Experimental: (§6) The anti-neuroinflammatory activity of DCH was evaluated and then the representative compounds were selected for the further study. […] In addition, in order to exclude the death influence, MTT-IC20 of all the compounds were measured. […] The exact reason was still unclear, but we supposed that it might be related to the homeostasis of cells. The tumor cells actually were always in hypoxia condition, in which DCH could promote the cytotoxic activity against tumor cells. In brief, DCH could reduce the release of NO caused by LPS-induced microglial cells.
(§7) N9 cells, which were in the logarithmic phase, were incubated for 24 h by adherent culture. Subsequently, the medium was changed to new one without serum. The cells were treated with different concentration of tested compounds. After specific time in the LPS condition, the supernatants were collected and analyzed.
The nitrite levels in medium were determined by Griess reaction. The absorbance was measured at 540 nm using a microplate reader.

[6] = MTT cytotoxicity in N9 cells; format: cell-based, murine; details: mouse, N9 microglial cells, cytotoxic activity
Experimental: as §6, §4, §7

[7] = HT-29, hypoxia 24 h then normoxia 72 h, read-out: IC50 HT-29 Hypoxia
[8] = HT-29, normoxia 96 h, read-out: IC50 HT-29 Normoxia
[9] = MDA-MB-231, hypoxia 24 h then normoxia 72 h, read-out: IC50 MDA-MB-231 Hypoxia
[10] = MDA-MB-231, normoxia 96 h, read-out: IC50 MDA-MB-231 Normoxia
[11] = HCT-116, hypoxia 24 h then normoxia 72 h, read-out: IC50 HCT-116 Hypoxia
[12] = HCT-116, normoxia 96 h, read-out: IC50 HCT-116 Normoxia
[13] = A549, hypoxia 24 h then normoxia 72 h, read-out: IC50 A549 Hypoxia
[14] = A549, normoxia 96 h, read-out: IC50 A549 Normoxia

| IC50 [5] [µM] | Compound | IC50 [1, 7] [µM] | IC50 [1, 8] [µM] | IC50 [2, 9] [µM] | IC50 [2, 10] [µM] | IC50 [3, 11] [µM] | IC50 [3, 12] [µM] | IC50 [4, 13] [µM] | IC50 [4, 14] [µM] | IC20 [6] [µM] |
| --- | --- | --- | --- | --- | --- | --- | --- | --- | --- | --- |
| – | COc1cccc2c1C(=O)c1c(O)c3c(c(O)c1C2=O)C[C@@](O)(C(=O)CO)C[C@@H]3O[C@H]1C[C@H](N)[C@H](O)[C@H](C)O1 [DOX, Doxorubicin, reference compound] | < 0.1 | 0.11 | 0.69 | 1.37 | > 2 | 1.29 | > 2 | > 2 | – |
| > 10 | Cc1ccc2c(Cn3cc(CO[C@H]4O[C@@H]5O[C@@]6(C)CC[C@H]7[C@H](C)CC[C@@H]([C@H]4C)[C@@]57OO6)nn3)cc(=O)oc2c1 [3h, 7-methyl-4-((4-((10S)-dihydroartemisininoxy)methyl-1H-1,2,3-triazol-1-yl)-methyl)-2H-1-chromen-2-one] | 32 | > 100 | > 100 | > 100 | > 100 | > 100 | > 100 | > 100 | > 10 |
| > 10 | Cc1cc(C)c2c(Cn3cc(CO[C@H]4O[C@@H]5O[C@@]6(C)CC[C@H]7[C@H](C)CC[C@@H]([C@H]4C)[C@@]57OO6)nn3)cc(=O)oc2c1 [3g, 5,7-dimethyl-4-((4-((10S)-dihydroartemisininoxy)methyl-1H-1,2,3-triazol-1-yl)-methyl)-2H-1-chromen-2-one] | 15.9 | 23.9 | > 100 | > 100 | > 100 | > 100 | > 100 | > 100 | > 10 |
| 5.69 | Cc1ccc2c(Cn3cc(CCO[C@H]4O[C@@H]5O[C@@]6(C)CC[C@H]7[C@H](C)CC[C@@H]([C@H]4C)[C@@]57OO6)nn3)cc(=O)oc2c1 [4h, 7-methyl-4-((4-(2-((10S)-dihydroartemisininoxy)ethyl)-1H-1,2,3-triazol-1-yl)-methyl)-2H-1-chromen-2-one] | 56.4 | > 100 | > 100 | > 100 | > 100 | > 100 | > 100 | > 100 | > 10 |
| > 10 | CN(C)c1ccc(O)c2c1C[C@H]1C[C@H]3[C@H](N(C)C)C(O)=C(C(N)=O)C(=O)[C@@]3(O)C(O)=C1C2=O [Minocycline, reference compound] | – | – | – | – | – | – | – | – | > 10 |
| > 10 | Cc1ccc2oc(=O)cc(Cn3cc(CCO[C@H]4O[C@@H]5O[C@@]6(C)CC[C@H]7[C@H](C)CC[C@@H]([C@H]4C)[C@@]57OO6)nn3)c2c1 [4i, 6-methyl-4-((4-(2-((10S)-dihydroartemisininoxy)ethyl)-1H-1,2,3-triazol-1-yl)-methyl)-2H-1-chromen-2-one] | 39 | > 100 | > 100 | > 100 | > 100 | > 100 | > 100 | > 100 | > 10 |
